Measurements as given in US9580465B2, “Tissue protective peptides and peptide analogs for preventing and treating diseases and disorders associated with tissue damage” (ARAIM PHARMACEUTICALS, INC., priority 2008, dated 2017).
Entries after “also recorded” stand apart in the source; their conditions may differ. Square brackets hold non-standard residues; d marks the D form. pGlu = O=C1CC[C@@H](C(=O)O)N1

Legend:
bilateral renal ischemia = assay: Bilateral renal ischemia assay; assay type: in vivo, C57/BL6 mice
Method: Sixty male C57/BL6 mice (˜25 g; Charles River Laboratories) were anesthetized with ketamine (150 mg/kg) and xylazine (15 mg/kg) i.p. Each animal was placed on a homeothermic blanket set at 37° C., and after a mid-line laparotomy, the renal pedicles were clamped for 30 minutes using nontraumatic vascular clamps. Peptide ID was administered at the indicated dose via i.p. Injection at 1 minute, 6 hours, and 12 hours after reperfusion. In a single dose study, the mice received a control (PBS), 1 μg/kg of Peptide IG at 1 minute, 1 μg/kg of Peptide IG at 30 minutes, 1 μg/kg of Peptide ID at 6 hours, or 10 μg/kg of Peptide ID at 6 hours (12 mice per group). In a multiple dose study, the mice received either multiple doses of a control (PBS), 0.1 μg/kg of Peptide ID, 1 μg/kg of Peptide ID, or 10 μg/kg of Peptide ID at 1 minute, 6 hours and 12 hours into reperfusion.
Twenty-four hours later, mice were reanesthetized and blood was obtained by cardiac puncture. Plasma urea and creatine were used as indicators of renal dysfunction and aspartate aminotransferase was used as an indicator of renal injury. Data were analyzed using ANOVA followed by Dunnett's post hoc test comparison.

UT-7epo cells = assay: UT-7epo proliferation/survival assay of erythropoietic potency; assay type: cell-based, human; details: 5 pM to 50 nM, 48 h incubation, WST-I reagent; FIG. 1
Method: The cells were maintained in 75 cm^2 flasks with 20 ml of medium/flask in a humidified incubator with 5% CO2 at 37° C. for 48 h. On day two of the assay, i.e., at 48 h, the cells were transferred from the flask into a 50-ml conical tube and centrifuged at 1,000 rpm for 5 minutes at room temperature. The supernatant was discarded and the cells were washed two times with 10 ml of starvation media (3% donor calf serum, 4 mM L-glutamine). The cells were then re-suspended in starvation media, using up and down pipette action to obtain a single cell suspension. The re-suspended cells were diluted with starvation media to obtain a density of 4×10^5 cells/ml, and plated at a total culture volume of 10 ml per 25 cm^2 flask. Following a 4 h incubation, the cells were again transferred to a 50-ml conical tube.
A series of 10 fold dilutions in RPMI 1640 medium containing 3% serum was used to generate concentrations of test compounds from 5 pM to 50 nM. Following a further for 48 h incubation, a solution of […] WST-I Cell Proliferation Reagent (Roche) was added to each well, and incubated for 1 hour at 37° C. in CO2. After mixing for 1 minute, the plate was read in a plate reader (absorption at 450 nm, subtracted from background absorption at 650 nm).

[1] = tested on: middle cerebral artery occlusion; assay: Middle cerebral artery occlusion model; assay type: in vivo, Sprague Dawley rats; details: 2 μg/kg bw i.v. upon reperfusion, then three injections at 2-hour intervals
Method: Sprague Dawley rats (8 per group) are subjected to the following MCAO protocol Surgery was performed in accordance with the teachings of Brines et al, 2000, PNAS USA 97:10526-10531 (hereby incorporated by reference in its entirety. Briefly, the rats are anesthetized with chloral hydrate (400 mg/kg-bw, i.p.), the carotid arteries were visualized, and the right carotid was occluded by two sutures and severed. A burr hole adjacent and rostral to the right orbit allowed visualization of the middle cerebral artery (“MCA”), which was cauterized distal to the rhinal artery. To produce a penumbra (border zone) surrounding this fixed MCA lesion, the contralateral carotid artery was occluded for 1 hour by using […] provided by a fine forceps and then re-opened.
The rats were administered saline, Peptide ID as a single i.v. dose (2 μg/kg bw), or Peptide IX, […], SEQ ID NO: 301), a scrambled version of Peptide IC, SEQ ID NO: 281, as a single Lv. dose (2 μg/kg bw) upon reperfusion, followed by three additional injections at 2-hour intervals. For assessment of injury, rats are subjected to behavioral testing or the volume of the lesion is determined by tetrazolium staining of brain sections performed 24 hours post surgery in accordance with the previously noted protocol.
The volume of the lesion was then determined by tetrazolium staining of brain sections performed 24 hours post surgery.
Rats were also tested in a foot fault behavioral protocol. Rats were tested on an elevated stainless steel grid floor 30 cm×30 cm with grid size of 30 mm according to the protocol of Markgraf et al., 1992, Brain Research 575:238-246 (hereby incorporated by reference in its entirety). When placed on the grid, a rat would attempt to move around and occasionally place a foot, rather than on the grid, through a grid opening (“foot fault”). The number of foot faults was measured for a 1 minute period.
The number of foot faults is indicative of the cognitive impairment of the rats due to the MCAO, the fewer the number of foot faults the less cognitive impairment.

Q: Which “creatinine, urea and aspartate aminotransferase (biochemical markers of renal dysfunction)” value (bilateral renal ischemia; multiple doses 1 μg/kg at 1 minute, 6 hours and 12 hours into reperfusion, FIG. 7) does the source give for “UEQLERALNSS ([pGlu]EQLERALNSS-OH; also: acetate/ammonium mixed salt) [Peptide ID, first glutamine replaced with pyroglutamate]” here?
A: Its value is “reduction in these biochemical markers of renal dysfunction”.

Q: And the “creatinine, urea and aspartate aminotransferase (biochemical markers of renal dysfunction)” value (bilateral renal ischemia; multiple doses 10 μg/kg at 1 minute, 6 hours and 12 hours into reperfusion, FIG. 7)?
A: The value was “reduction in these biochemical markers of renal dysfunction”.

Q: What about the “creatinine, urea and aspartate aminotransferase (biochemical markers of renal dysfunction)” value (bilateral renal ischemia; single dose 1 μg/kg at 6 hours into reperfusion, 24 hrs of reperfusion, FIG. 6) of the same sequence?
A: The value was “reduction in these biochemical markers of renal dysfunction”.

Q: What about the “creatinine, urea and aspartate aminotransferase (biochemical markers of renal dysfunction)” value (bilateral renal ischemia; single dose 10 μg/kg at 6 hours into reperfusion, 24 hrs of reperfusion, FIG. 6) of the same sequence?
A: The value was “reduction in these biochemical markers of renal dysfunction”.

Q: What about the “proliferation of UT-7 EPO cells (erythropoietic activity)” value (UT-7epo cells) of the same sequence?
A: Its value is “no erythropoeitic activity; also recorded: did not result in proliferation of the cells”.

Q: And the “infarct volume (volume of lesion)” value ([1]; 24 hours post surgery, tetrazolium staining)?
A: The value was 225±20 mm^3.

Q: What about the “number of foot faults in 1 minute period” value ([1]; after MCAO, FIG. 5) of the same sequence?
A: The value was 11.2±1.1 foot faults.
